Where a name gives a salt, the structure may show the parent alone.
Key:
ErbB2 = target: T1, ErbB2 (Homo sapiens, UniProt P04626); experiment: ErbB-2 substrate phosphorylation assay (HTRF); type: biochemical
T1 construct: made in house; host or cells: baculovirus expression system
Outline: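 Baculovirus-expressed EGFR (0.8 nM) or ErbB2 (10 nM) in enzyme mix, preincubated 1 h at 20 °C with compound (0.00027–47.6 μM final), then 90 min at 20 °C with substrate mix of 20 μM ATP, 0.8 uM biotinylated Peptide C, MnCl2, MOPS pH 7.5. Phosphotyrosine by HTRF; pIC50 reported.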

A375P F11s tumor cells = experiment: Cell growth inhibition assay (CellTiter-Glo), A375P F11s; type: cell-based, Human; settings: Homo sapiens
Description: (§1) Human breast tumor cells (BT474) were cultured in RPMI (Mediatech […]), containing 10% FBS (JRH Biosciences 12176) and 1% penicillin-streptomycin (Invitrogen 15140). Human head and neck tumor cells (HN5) were cultured in high glucose DMEM (Mediatech 50-013-PB) containing 10% FBS and 1% penicillin-streptomycin. Human colon tumor cells (Colo205) were cultured in RPMI (Mediatech 50-020-PB) containing 10% FBS and 1% penicillin-streptomycin. Human melanoma cancer cells (SK-MEL-28) were cultured in EMEM with nonessential amino acids (Mediatech 50-011-PB) containing 10% FBS, 1% sodium pyruvate (JT Baker 3354-04), and 1% penicillin-streptomycin. Human melanoma cancer cells (A375P F11s) were cultured in RPMI (Mediatech 50-020-PB) containing 10% FBS, 1% sodium pyruvate, and 1% penicillin-streptomycin. Human colon cancer cells (HT-29) were cultured in high glucose DMEM (Mediatech 50-013-PB) containing 10% FBS and 1% penicillin-streptomycin. Human melanoma cancer cells (SK-MEL-3) were cultured in McCoy's 5A (50-025-PB) containing 15% FBS, and 1% penicillin-streptomycin. All cell lines were maintained at 37° C. in a humidified 5% CO2, 95% air incubator. Cells were harvested using trypsin/EDTA (Invitrogen 25200), counted using a haemocytometer, and plated. For 96-well assays (using white full-area NUNC plates cat. #136102), cells were plated in 105 μL at the following densities (cells/well): HNS, 500; Colo 205, 500; SK-MEL-28, 500; A375P F11s, 500; HT-29, 500; SK-MEL-3, 500; and BT474, 3000. For 384-well assays (white full-area NUNC plates, cat. #781080), cells were plated in 48 μL at the following densities (cells/well): HNS, 500; Colo205, 500; SK-MEL-28, 500; A375P F11s, 500; HT-29, 500; SK-MEL-3, 500; and BT474, 2000.
(§2) The next day, compounds were diluted as follow: For 96-well assays, 13.5 μL of compound in DMSO were diluted using nine (9) serial 1:3 dilutions of 4.5 μL in 9 of DMSO. Medium (270 μL/well of RPMI with 10% FBS and 1% penicillin-streptomycin) was added to the plates. Aliquots (7 μL) were added to cells in the final assay giving a final DMSO concentration of 0.2%. For 384-well assays, 15 μL of compound in DMSO were diluted using nine (9) serial 1:3 dilutions of 5 μL in 10 μL of DMSO, followed by a further dilution of 5 μL of compound with 95 μL of medium, of which 2 μL were added to cells in the final assay giving a final DMSO concentration of 0.2%. Cells were incubated at 37° C., 5% CO2 for 3 days.
(§3) Total ATP was measured (as a surrogate estimate of cell number) using CellTiter-Glo® reagent (Promega G7571). Briefly, plates were removed from the incubator and allowed to equilibrate to room temperature for 30 minutes. CellTiter-Glo® (25 μL or 55 μL for 384-well or 96-well assays, respectively) reagent was added to each well and plates were shaken on an orbital plate shaker for 2 minutes. Plates were incubated without shaking for a further 30 minutes and read on an LJL Analyst GT reader in luminometer mode with an integration time of 0.5 seconds per well. Percent inhibition of cell growth was calculated relative to DMSO vehicle-treated control wells. Concentration of compound required to give 50% inhibition of vehicle-treated control cell growth (IC50) was interpolated using a 4-parameter fit for determining IC50 using the following equation: Y=A +((B−A)/(1+((C/X)̂D))) where […].

SK-MEL-28 tumor cells = experiment: Cell growth inhibition assay (CellTiter-Glo), SK-MEL-28; type: cell-based, Human; settings: Homo sapiens, SK-MEL-28, 72 h; 3 days incubation
Outline: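 Cells plated at 500 cells/well in their growth media, dosed next day with nine-step 1:3 compound dilutions (final DMSO 0.2%), then incubated 3 days at 37° C, 5% CO2. Total ATP read by CellTiter-Glo luminescence as a surrogate for cell number; IC50 interpolated from 4-parameter fit versus DMSO controls.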

HN5 tumor cells = experiment: Cell growth inhibition assay (CellTiter-Glo), HN5; type: cell-based, Human; settings: Homo sapiens, 72 h; 3 days incubation
Description: as §1, §2, §3

T1 sequence (P04626 23-1255): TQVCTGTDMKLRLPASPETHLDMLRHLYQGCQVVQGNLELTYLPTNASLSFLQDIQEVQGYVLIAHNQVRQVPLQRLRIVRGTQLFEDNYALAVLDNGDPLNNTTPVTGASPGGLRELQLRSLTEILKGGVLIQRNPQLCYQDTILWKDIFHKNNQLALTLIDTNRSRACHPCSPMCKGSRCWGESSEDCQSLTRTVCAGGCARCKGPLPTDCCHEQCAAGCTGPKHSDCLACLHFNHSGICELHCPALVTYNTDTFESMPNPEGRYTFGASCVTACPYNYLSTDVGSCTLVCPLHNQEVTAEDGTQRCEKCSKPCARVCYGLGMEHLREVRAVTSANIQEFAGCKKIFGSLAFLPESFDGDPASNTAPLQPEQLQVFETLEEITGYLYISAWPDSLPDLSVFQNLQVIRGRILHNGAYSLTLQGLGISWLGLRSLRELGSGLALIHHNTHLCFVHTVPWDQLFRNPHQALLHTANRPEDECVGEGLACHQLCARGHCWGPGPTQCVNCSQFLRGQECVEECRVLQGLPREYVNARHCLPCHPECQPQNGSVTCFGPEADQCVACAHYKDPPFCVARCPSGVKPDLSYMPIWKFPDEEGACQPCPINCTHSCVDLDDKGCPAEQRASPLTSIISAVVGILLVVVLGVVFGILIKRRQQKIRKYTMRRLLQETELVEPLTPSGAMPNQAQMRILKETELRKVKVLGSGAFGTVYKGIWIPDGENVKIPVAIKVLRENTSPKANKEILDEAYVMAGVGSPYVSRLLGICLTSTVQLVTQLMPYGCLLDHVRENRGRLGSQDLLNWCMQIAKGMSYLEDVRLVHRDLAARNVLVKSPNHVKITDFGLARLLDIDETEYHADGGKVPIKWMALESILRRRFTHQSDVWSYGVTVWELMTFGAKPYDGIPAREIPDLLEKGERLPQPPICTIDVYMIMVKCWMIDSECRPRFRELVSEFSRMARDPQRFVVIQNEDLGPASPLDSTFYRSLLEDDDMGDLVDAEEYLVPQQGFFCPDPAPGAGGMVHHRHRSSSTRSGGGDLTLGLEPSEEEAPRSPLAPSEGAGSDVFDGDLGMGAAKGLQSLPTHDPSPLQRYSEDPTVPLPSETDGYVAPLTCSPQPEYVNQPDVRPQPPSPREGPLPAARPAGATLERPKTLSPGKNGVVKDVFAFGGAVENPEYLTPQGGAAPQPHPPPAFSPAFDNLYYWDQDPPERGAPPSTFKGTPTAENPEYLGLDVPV

IC50 (ErbB2) [nM]	IC50 (A375P F11s tumor cells) [nM]	IC50 (SK-MEL-28 tumor cells) [nM]	IC50 (HN5 tumor cells) [nM]	Compound
< 100	100 to 1000	< 100	> 1000	COc1cc(N2CCC(N3CCN(CCS(C)(=O)=O)CC3)CC2)ccc1Nc1nccc(-c2sc(C(C)C)nc2-c2cccc(NS(=O)(=O)c3c(F)cccc3F)c2)n1 [Example 20, 2,6-Difluoro-N-{3-[2-(1-methylethyl)-5-(2-{[2-(methyloxy)-4-(4-{4-[2-(methylsulfonyl)ethyl]-1-piperazinyl}-1-piperidinyl)phenyl]amino}-4-pyrimidinyl)-1,3-thiazol-4-yl]phenyl}benzenesulfonamide]
< 100	< 100	< 100	100 to 1000	O=S(=O)(Nc1cccc(-c2nc(N3CCCC3)sc2-c2ccnc(Nc3ccc(N4CCN(CCF)CC4)c(F)c3)n2)c1)c1c(F)cccc1F [Example 21, 2,6-Difluoro-N-{3-[5-[2-({3-fluoro-4-[4-(2-fluoroethyl)-1-piperazinyl]phenyl}amino)-4-pyrimidinyl]-2-(1-pyrrolidinyl)-1,3-thiazol-4-yl]phenyl}benzenesulfonamide]
< 100	< 100	< 100	> 1000	CC(C)c1nc(-c2ccc(F)c(NS(=O)(=O)c3ccccc3F)c2)c(-c2ccnc(Nc3ccc(N4CCN(CCS(C)(=O)=O)CC4)c(F)c3)n2)s1 [Example 22, 2-Fluoro-N-{2-fluoro-5-[5-{2-[(3-fluoro-4-}4-[2-(methylsulfonyl)ethyl]-1-piperazinyl}phenyl)amino]-4-pyrimidinyl}-2-(1-methylethyl)-1,3-thiazol-4-yl]phenyl}benzenesulfonamide hydrochloride]
100 to 1000	< 100	< 100	> 1000	CC(C)c1nc(-c2ccc(F)c(NS(=O)(=O)c3c(F)cccc3F)c2)c(-c2ccnc(Nc3ccc(N4CCOCC4)nc3)n2)s1 [Example 23, 2,6-Difluoro-N-{2-fluoro-5-[2-(1-methylethyl)-5-(2-{[6-(4-morpholinyl)-3-pyridinyl]amino}-4-pyrimidinyl)-1,3-thiazol-4-yl]phenyl}benzenesulfonamide]
100 to 1000	< 100	< 100	> 1000	CC(C)c1nc(-c2ccc(F)c(NS(=O)(=O)c3c(F)cccc3F)c2)c(-c2ccnc(Nc3ccc(N4CCC(C#N)CC4)nc3)n2)s1 [Example 24, N-{5-[5-(2-{[6-(4-Cyano-1-piperidinyl)-3-pyridinyl]amino}-4-pyrimidinyl)-2-(1-methylethyl)-1,3-thiazol-4-yl]-2-fluorophenyl}-2,6-difluorobenzenesulfonamide]
< 100	100 to 1000	100 to 1000	> 1000	CC(C)c1nc(-c2ccc(F)c(NS(=O)(=O)c3c(F)cccc3F)c2)c(-c2ccnc(Nc3ccc(N4CCN(CCF)CC4)c(F)c3)n2)s1 [Example 25]
100 to 1000	< 100	< 100	> 1000	O=S(=O)(Nc1cc(-c2nc(N3CCCC3)sc2-c2ccnc(Nc3ccc(N4CCOCC4)nc3)n2)ccc1F)c1c(F)cccc1F [Example 26, 2,6-Difluoro-N-{2-fluoro-5-[5-(2-{(6-(4-morpholinyl)-3-pyridinyl]amino}-4-pyrimidinyl)-2-(1-pyrrolidinyl)-1,3-thiazol-4-yl]phenyl}benzenesulfonamide]
100 to 1000	< 100	100 to 1000	> 1000	CN(C)c1nc(-c2ccc(F)c(NS(=O)(=O)c3c(F)cccc3F)c2)c(-c2ccnc(Nc3ccc(N4CCOCC4)nc3)n2)s1 [Example 27, N-{5-[2-(Dimethylamino)-5-(2-{[6-(4-morpholinyl)-3-pyridinyl]amino}-4-pyrimidinyl)-1,3-thiazol-4-yl]-2-fluorophenyl}-2,6-difluorobenzenesulfonamide]
100 to 1000	< 100	< 100	> 1000	CC(C)(C)c1nc(-c2ccc(F)c(NS(=O)(=O)c3c(F)cccc3F)c2)c(-c2ccnc(Nc3ccc(N4CCOCC4)nc3)n2)s1 [Example 28, N-{5-[2-(1,1-Dimethylethyl)-5-(2-{[[6-(4-morpholinyl)-3-pyridinyl]amino}-4-pyrimidinyl)-1,3-thiazol-4-yl]-2-fluorophenyl]-2,6-difluorobenzenesulfonamide hydrochloride]
100 to 1000	< 100	< 100	100 to 1000	CC(C)c1nc(-c2cccc(NS(=O)(=O)c3c(F)cccc3F)c2F)c(-c2ccnc(Nc3ccc(N4CCN(CCF)CC4)c(F)c3)n2)s1 [Example 29, 2,6-Difluoro-N-{2-fluoro-3-[5-[2-({3-fluoro-4-[4-(2-fluoroethyl)-1-piperazinyl]phenyl}amino)-4-pyrimidinyl]-2-(1-methylethyl)-1,3-thiazol-4-yl]phenyl}benzenesulfonamide]
> 1000	< 100	< 100	< 100	CC(C)c1nc(-c2cccc(NS(=O)(=O)c3c(F)cccc3F)c2F)c(-c2ccnc(Nc3cnc(N4CCOCC4)c(F)c3)n2)s1 [Example 30, 2,6-Difluoro-N-{2-fluoro-3-[5-(2-{[5-fluoro-6-(4-morpholinyl)-3-pyridinyl]amino}-4-pyrimidinyl)-2-(1-methylethyl)-1,3-thiazol-4-yl]phenyl}benzenesulfonamide]
> 1000	100 to 1000	100 to 1000	> 1000	CC(C)c1nc(-c2cc(F)c(F)c(NS(=O)(=O)c3cccc(F)c3)c2)c(-c2ccnc(Nc3cnc(N4CCOCC4)c(F)c3)n2)s1 [Example 31, N-{2,3-Difluoro-5-[5-(2-{[5-fluoro-6-(4-morpholinyl)-3-pyridinyl]amino}-4-pyrimidinyl)-2-(1-methylethyl)-1,3-thiazol-4-yl]phenyl}-3-fluorobenzenesulfonamide]
> 1000	< 100	< 100	> 1000	CC(C)c1nc(-c2ccnc(NS(=O)(=O)c3c(F)cccc3F)c2)c(-c2ccnc(Nc3ccc(N4CCOCC4)nc3)n2)s1 [Example 32, 2,6-Difluoro-N-{4-[2-(1-methylethyl)-5-(2-{[6-(4-morpholinyl}-3-pyridinyl]amino}-4-pyrimidinyl)-1,3-thiazol-4-yl]-2-pyridinyl}benzenesulfonamide]
> 1000	< 100	< 100	> 1000	CC(C)c1nc(-c2ccnc(NS(=O)(=O)c3c(F)cccc3F)c2)c(-c2ccnc(Nc3cnc(N4CCOCC4)c(F)c3)n2)s1 [Example 33]
100 to 1000	100 to 1000	100 to 1000	> 1000	CCc1nc(-c2cccc(CNS(=O)(=O)c3ccccc3)c2)c(-c2ccnc(Nc3ccc(N4CCOCC4)c(F)c3)n2)s1 [Example 34]
> 1000	100 to 1000	100 to 1000	> 1000	CC(=O)N1CCN(c2ccc(Nc3nccc(-c4sc(C(C)C)nc4-c4cccc(NS(=O)(=O)c5cn(C)cn5)c4)n3)cn2)CC1 [Example 36]

Source: patent publication US20110319392A1, “Thiazole Sulfonamide And Oxazole Sulfonamide Kinase Inhibitors” (priority 2009, published 2011)
